± gives the expanded uncertainty stated by the source.
What was measured:
[1] = 101.3 kPa, Liquid, Oscillating disk viscometry
[2] = refractive index (Na D-line) (dimensionless); settings: 101.3 kPa, Liquid, Standard Abbe refractometry

Row | viscosity ([1]; 293.15 K) [mPa·s] | viscosity ([1]; 298.15 K) [mPa·s] | viscosity ([1]; 303.15 K) [mPa·s] | viscosity ([1]; 308.15 K) [mPa·s] | viscosity ([1]; 313.15 K) [mPa·s] | viscosity ([1]; 318.15 K) [mPa·s] | viscosity ([1]; 323.15 K) [mPa·s] | viscosity ([1]; 328.15 K) [mPa·s] | viscosity ([1]; 333.15 K) [mPa·s] | refractive index ([2]; 293.15 K) | refractive index ([2]; 298.15 K) | refractive index ([2]; 303.15 K) | refractive index ([2]; 308.15 K) | refractive index ([2]; 313.15 K) | refractive index ([2]; 318.15 K) | refractive index ([2]; 323.15 K) | refractive index ([2]; 328.15 K) | refractive index ([2]; 333.15 K) | Structure (SMILES)
1 | 13.12 ± 2.9 | 10.28 ± 2.3 | 8.42 ± 1.8 | 6.78 ± 1.5 | 5.54 ± 1.2 | 4.61 ± 0.99 | 3.82 ± 0.82 | 3.13 ± 0.69 | 2.42 ± 0.56 | 1.4386 ± 0.0022 | 1.437 ± 0.0022 | 1.4352 ± 0.0022 | 1.4331 ± 0.0022 | 1.431 ± 0.0022 | 1.4288 ± 0.0022 | 1.4265 ± 0.0023 | 1.4242 ± 0.0023 | 1.4218 ± 0.0023 | CNCCO [2-(methylamino)ethanol]
2 | 153.62 ± 41 | 99.27 ± 27 | 71.31 ± 17 | 52.94 ± 13 | 37.67 ± 9.1 | 28.23 ± 6.5 | 21.55 ± 4.9 | 16.43 ± 3.8 | 12.74 ± 3 | 1.4856 ± 0.0021 | 1.4842 ± 0.0021 | 1.4827 ± 0.0022 | 1.481 ± 0.0022 | 1.4792 ± 0.0022 | 1.4772 ± 0.0022 | 1.475 ± 0.002 | 1.4727 ± 0.0023 | 1.4702 ± 0.0023 | NCCNCCO [N-(2-aminoethyl)ethanolamine]

Reference: the NIST ThermoML archive (doi:10.1021/acs.jced.9b00171)
